# Experimental data from patent publication US11369110B2, “Compositions and methods for enhancing microbial stability” (NOVOZYMES BIOAG A/S, priority 2013, dated 2022).
# Tests used:
# [1] = tested on: B. elkani SEMIA 587 and B. elkani SEMIA 5019; assay: Liquid inoculant survivability in the presence of benzyl hemi-formal (Example 1); format: cell-based, Bradyrhizobium elkani; conditions: at the concentration tested; Table 2
# Experimental: (§1) The activity of two microbially stabilizing compounds, yeast extract and albumin, were tested for reducing the effects of the preservative benzyl hemi-formal (at a concentration reflecting that provided by the current recommendation for a commercial insecticide that includes that preservative).
# (§2) Using conventional aseptic techniques, 10 ml of a commercial liquid inoculant containing B. elkani SEMIA 587 and B. elkani SEMIA 5019 (Nitragin Optimize II, commercially available from Novozymes) was transferred to a series of sterile test tubes, to which 0.7 ml of a 2% solution containing benzyl hemi-formal was added and, in the corresponding tubes, 0.3 g of Yeast extract (commercially available from Merck) or 0.3 g Albumin (commercially available from SIGMA) were incorporated. A control of bacterial survival consisting of the inoculants without a microbial stabilizing compound was tested for comparison.
# (§3) The tubes were mixed using a vortex agitator, transferred to a 30° C. orbital shaker. After 20 minutes incubation (Time 0), 0.1 ml samples were taken, and conventionally diluted 1/10 in a series of tubes containing 0.9 ml of sterile saline solution (0.85% NaCl in distilled water). […] Colonies were counted after seven days incubation. The number of colony forming units per ml (CFU ml^−1) was calculated taking into account the plated dilutions and the plated volume. […]
# [2] = tested on: B. japonicum SEMIA 5079 and B. japonicum SEMIA 5080; assay: Liquid inoculant survivability in the presence of benzyl hemi-formal (Example 4); format: cell-based, Bradyrhizobium japonicum; conditions: at the concentration tested; Table 8
# Experimental: as §1
# as §2, with “japonicum” for “elkani”, “5079” for “587”, “5080” for “5019”, “CellTech HC,” for “Optimize II,”
# as §3
# [3] = tested on: B. elkani SEMIA 587 and B. elkani SEMIA 5019; assay: Liquid inoculant survivability in the presence of insecticide containing benzyl hemi-formal (Example 2); format: cell-based, Bradyrhizobium elkani; conditions: Table 4
# Experimental: The general protocol described in Example 1 was modified to process larger samples. A commercial insecticide containing benzyl hemi-formal was tested at concentrations that would emulate the recommended doses both for the inoculants and the insecticide.
# (§4) Sterile 250 ml erlenmeyers containing sterile magnetic stirrers were used instead of test tubes. The commercial insecticide was transferred to a series of erlenmeyers and the stated amounts of microbial stabilizing compounds (yeast extract and soy meal peptone from Merck and tryptophan from Ajinomoto) were premixed at 250 rpm for 6 hours.
# To each of the corresponding erlenmeyer flasks, 30 ml of the inoculants (as described in example 1) was added, mixed, and samples were obtained immediately and at 2 hr intervals. Samples were processed as described in Example 1.
# [4] = tested on: B. japonicum SEMIA 5079 and B. japonicum SEMIA 5080; assay: Liquid inoculant survivability in the presence of insecticide containing benzyl hemi-formal (Example 5); format: cell-based, Bradyrhizobium japonicum; conditions: Table 10
# Experimental: The general protocol described in Example 4 was modified to process larger samples. A commercial insecticide containing benzyl hemi-formal was tested at concentrations that would emulate the recommended doses both for the inoculants and the insecticide.
# as §4
# To each of the corresponding erlenmeyer flasks, 30 ml of inoculant (as described in example 4) was added, mixed, and samples were obtained immediately and at 2 hr intervals. Samples were processed as described in Example 4.
Compound,Effect on the deleterious effects induced by benzyl hemi-formal (in words) [1],Effect on the deleterious effects induced by benzyl hemi-formal (in words) [2],Effect on the deleterious effects induced by benzyl hemi-formal containing agrochemical on a microbial population (in words) [3],Effect on the deleterious effects induced by benzyl hemi-formal containing agrochemical on a microbial population (in words) [4]
albumin,reduce the deleterious effects,reduce the deleterious effects,,
N[C@@H](Cc1c[nH]c2ccccc12)C(=O)O [tryptophan],,,reduce the deleterious effects,reduce the deleterious effects
